{
  "source": "paper PMC4026528",
  "about": "(PLoS ONE, 2014)",
  "key": {"[1]": {"tested_on": "Axin1, c-Myc, p21 protein in HT-1080 cells", "test": "Western blotting in HT-1080", "format": "cell-based, human", "conditions": "HT-1080, overnight"}, "HT-1080 cells [2]": {"tested_on": "HT-1080 cells", "test": "Tube formation assay, HT-1080", "format": "cell-based, human", "conditions": "HT-1080, 24 hours exposure, vs DMSO", "description": "Soft agar assay and analysis was carried out as previously described. For scratch assay, confluent monolayer of U2OS and HT-1080 cells were subjected to scratch using a sterile pipette tip. Wounded monolayers were washed to remove debris and incubated with SEN461 at different concentrations for 20 hours. After the incubation period, images were taken under an Axiovert 200M (Zeiss) microscope equipped with a CCD camera, and the gap width was measured using MetaMorph 6.3 software (Universal Imaging Corp.) to calculate the area covered by cells (pixels unit). The tube formation assay was performed using growth factor-reduced Matrigel from BD (BD Biosciences; San Jose, CA, USA). Matrigel was thawed overnight at 4°C and was diluted (1∶1) with phenol red-free DMEM without serum. 100 µl of the diluted matrigel was used to coat the wells of a 96 well plate and was allowed to polymerize for 2 hours at 37°C. […] The tube formation was monitored under a phase contrast microscope (Axiovert 200, Zeiss) and imaged using MetaMorph system (Universal Imaging Corp)."}, "[3]": {"tested_on": "Wnt transcriptional activity (TCF reporter) in U2OS cells", "test": "TCF-Luciferase/TA-Renilla Wnt reporter assay in U2OS", "format": "cell-based, human", "conditions": "24 h, concentration dependent", "text": "(§1) The generation of TCF-Luciferase and TA-Renilla reporter plasmids as well as IC50 determination and calculation was reported previously. Human AXIN1 and WNT3A cDNAs were purchased from Origene as “transfection ready” plasmids. Dominant negative TCF4 cDNA was purchased from Upstate. Luciferase reporter of the nucleolin promoter (pNucL14) and FLAG-c-Myc expressing vector were from B. Amati. Luciferase reporter of the Hes5 promoter and Notch1-IC expressing vector were from I. Screpanti. Lentiviral vectors for inducible dominant negative TCF4 (rLV-EF1-tTS, rLV-EF1-rtTA and rLV-TRE-CMV-HA-TCF4DN) were purchased from Vectalys.\n(§2) Transfections were carried out using Lipofectamine 2000 (Invitrogen) according to the manufacturer’s instructions. Lentiviral expression of TCF-Luc, TA-Renilla, and the inducible dominant negative TCF4, were carried out following Vectalys instructions. For reporter assays, luciferase activities were performed as described previously."}, "HT-1080 xenograft tumor": {"tested_on": "HT-1080 xenograft tumor", "test": "HT-1080 xenograft tumor growth", "format": "in vivo, female Crl:CD-1 nude mice", "conditions": "30 mg/kg twice a day PO, seven days", "description": "Female athymic nude mice (6 weeks old, Crl:CD-1 nude mice) were obtained from Charles River Italia (Calco, Italy). HT-1080 cells (6×10^∧6 cells) were resuspended in 200 µl of PBS 1X and injected subcutaneously in the right flank of the mice. Body weight and tumor measurements (using a digital caliper) were performed twice a week. Randomization was performed on day 12 after cell injection by comparing tumor mass and treatments started on day 13 when tumors reached a median size of 246 mm^3 (range = 230–268 mm^3). SEN461 was formulated in 0.5% w/v Methocel in MilliQ water and administered PO by oral gavage twice a day at 30 mg/kg for seven consecutive days in a total of 15 animals (n = 5 for each time point). Control animals (n = 5) were administered with the vehicle for the same time period. On treatment day 19, the mice were euthanized under inhalant anesthesia with isoflurane and tumor and blood samples were collected at three different time points (1–4–8 h, n = 5 animals for each time point) after last treatment and subjected to gene expression analysis and compound quantification. All mice were maintained in a conventional-specific-pathogen-free facility according to the NIH guidelines using an approved Animal Care and Use Committee protocol. […]"}, "[4]": {"tested_on": "Axin1 and β-catenin in 143B osteosarcoma cells", "test": "Western blotting in 143B", "format": "cell-based, human"}, "[5]": {"test": "Plasma and tumor exposure in HT-1080 xenograft mice", "format": "in vivo, female Crl:CD-1 nude mice", "conditions": "30 mg/kg BID PO", "description": "Female athymic nude mice (6 weeks old, Crl:CD-1 nude mice) were obtained from Charles River Italia (Calco, Italy). HT-1080 cells (6×10^∧6 cells) were resuspended in 200 µl of PBS 1X and injected subcutaneously in the right flank of the mice. Body weight and tumor measurements (using a digital caliper) were performed twice a week. Randomization was performed on day 12 after cell injection by comparing tumor mass and treatments started on day 13 when tumors reached a median size of 246 mm^3 (range = 230–268 mm^3). SEN461 was formulated in 0.5% w/v Methocel in MilliQ water and administered PO by oral gavage twice a day at 30 mg/kg for seven consecutive days in a total of 15 animals (n = 5 for each time point). Control animals (n = 5) were administered with the vehicle for the same time period. On treatment day 19, the mice were euthanized under inhalant anesthesia with isoflurane and tumor and blood samples were collected at three different time points (1–4–8 h, n = 5 animals for each time point) after last treatment and subjected to gene expression analysis and compound quantification. All mice were maintained in a conventional-specific-pathogen-free facility according to the NIH guidelines using an approved Animal Care and Use Committee protocol. During all the experimental time period, mice were housed (5 animals/cage) in individually ventilated solid floor plastic cages (Sealsafe Plus GR500, Tecniplast-Gazzada (VA) – Italy) using as bedding the Sawdust SCOBIS UNO by MUCEDOLA S.r.l (via Galileo Galilei 4, 20019 Settimo Milanese, Milano, Italy). Cages were maintained at a temperature of 20–24°C and humidity of 40–70% (Siemens Desigo Apparatus ver. 4.1) with 70 air changes/hour in the cage (10–15 air changes/hour in the room). Animals were subjected to a 12-hour light/12-hour dark cycle and have free access to a standard pelleted commercial laboratory diet (Certified Rodent irradiated 4RF21– Mucedola, Italy) and to municipal tap water, purified by reverse osmosis and autoclaved. The study was conducted in compliance with Decreto Legislativo January 27, 1992, N. 116, Gazzetta Ufficiale N. 40 February 18, 1992, (Directive N. […]) concerning protection of animals used for scientific purposes. The project was authorized by the Italian Institute of Health (48/2009/B). The experimental protocol was rewieved and approved by the Internal Ethical Committee."}, "HT-1080 cells [6]": {"tested_on": "HT-1080 cells", "test": "Scratch assay (motility), HT-1080", "format": "cell-based, human", "conditions": "HT-1080, 20 hours", "description": "Soft agar assay and analysis was carried out as previously described. For scratch assay, confluent monolayer of U2OS and HT-1080 cells were subjected to scratch using a sterile pipette tip. Wounded monolayers were washed to remove debris and incubated with SEN461 at different concentrations for 20 hours. After the incubation period, images were taken under an Axiovert 200M (Zeiss) microscope equipped with a CCD camera, and the gap width was measured using MetaMorph 6.3 software (Universal Imaging Corp.) to calculate the area covered by cells (pixels unit). The tube formation assay was performed using growth factor-reduced Matrigel from BD (BD Biosciences; San Jose, CA, USA). Matrigel was thawed overnight at 4°C and was diluted (1∶1) with phenol red-free DMEM without serum. 100 µl of the diluted matrigel was used to coat the wells of a 96 well plate and was allowed to polymerize for 2 hours at 37°C. After equilibrating the gel with the complete growth medium, 15×10^3 cells were seeded in each well and incubated for 20 hours. The tube formation was monitored under a phase contrast microscope (Axiovert 200, Zeiss) and imaged using MetaMorph system (Universal Imaging Corp)."}, "[7]": {"tested_on": "Notch signaling in HEK293 cells", "test": "Hes5 promoter luciferase reporter with Notch1-IC, HEK293", "format": "cell-based", "conditions": "HEK293, Notch1-IC stimulation, data not shown", "text": "as §1, §2"}, "[8]": {"tested_on": "Wnt transcriptional activity in DLD1 colorectal cancer cells", "test": "TCF-Luciferase/TA-Renilla Wnt reporter assay in DLD1", "format": "cell-based", "conditions": "DLD1, transiently transfected", "text": "as §1, §2"}, "[9]": {"tested_on": "Axin1/P-β-catenin co-localization in U2OS cells", "test": "Axin1-GFP / P-β-catenin co-localization (confocal) in U2OS", "format": "cell-based, human", "conditions": "Wnt3a-CM, 10 µmol/L overnight", "protocol": "For co-localization experiments, U2OS cells were plated directly on coverslips coated with Fibronectin (Invitrogen). After transfections and incubation treatment of 24 h, cells were washed once with 1X PBS and then fixed with 4% paraformaldehyde for 15 min. After three washes in PBS, cells were permeabilized with 0.1% Triton X-100 for 10 min and washed three times with TBS (Bio-Rad). […] After 24 h, cells were washed three times with TBS and incubated for 1 h with the following secondary antibody Alexa Fluor 546-conjugated goat anti-rabbit IgG (Invitrogen, 1∶1000). Finally, coverslips were mounted onto glass slides using Prolong Gold Antifade reagent with DAPI (Invitrogen). Cells were examined under laser confocal fluorescence microscope with plan-apochromate 40x and 63x/1.4 oil-immersion objective (LSM 510 Meta, Axiovert 200, Zeiss). Co-localization experiments were performed in triplicate, and data/images presented are the average of at least 10 random fields for each independent experiment."}},
  "note": "Several values for one entry are separate records, joined by “and”; a condition that tells them apart may be missing. Equal entries are not always repeated.",
  "data": [
    {"smiles": "COCC(=O)N1CCN(C(=O)C2CCC(Cn3c(=O)c4cc(OC)ccc4n(C)c3=O)CC2)CC1", "note": "(stereo not drawn) [SEN461]", "values": [
      {"measurement": "Axin1 protein level", "setting": "[1]", "result": "robust concentration dependent stabilization"},
      {"measurement": "CDK inhibitor p21 protein level", "setting": "[1]", "result": "up-regulation"},
      {"measurement": "c-Myc protein level", "setting": "[1]", "result": "down-modulation of c-Myc"},
      {"measurement": "tubule-formation activity", "setting": "HT-1080 cells [2]", "result": "did not produce any change"},
      {"measurement": "TCF-dependent reporter activity (TCF-Luciferase/TA-Renilla)", "setting": "[3]", "result": "reduced TCF-dependent reporter activity"},
      {"measurement": "antitumor activity (tumor growth)", "setting": "HT-1080 xenograft tumor", "result": "tumor stasis effect"},
      {"measurement": "Axin1 protein level", "setting": "[4]", "result": "Axin1 stabilization"},
      {"measurement": "cytoplasmic β-catenin total level", "setting": "[4]", "result": "down-regulation of total level of cytoplasmic β-catenin"},
      {"measurement": "Ctumor/plasma", "setting": "[5]; day 7, 1 h", "result": 0.23},
      {"measurement": "Cplasma", "setting": "[5]; day 7, 1 h after last dose", "result": "6.6 µmol/L and 6.62 ± 2.08 µmol/L"},
      {"measurement": "Ctumor", "setting": "[5]; day 7, 1 h after last dose", "result": "1.5 µmol/L and 1.54 ± 0.35 µmol/L"},
      {"measurement": "Ctumor/plasma", "setting": "[5]; day 7, 4 h", "result": 0.23},
      {"measurement": "Cplasma", "setting": "[5]; day 7, 4 h after last dose", "result": "2.57 ± 0.08", "unit": "µmol/L"},
      {"measurement": "Ctumor", "setting": "[5]; day 7, 4 h after last dose", "result": "0.58 ± 0.08", "unit": "µmol/L"},
      {"measurement": "Ctumor/plasma", "setting": "[5]; day 7, 8 h", "result": 0.17},
      {"measurement": "Cplasma", "setting": "[5]; day 7, 8 h after last dose", "result": "0.57 ± 0.19", "unit": "µmol/L"},
      {"measurement": "Ctumor", "setting": "[5]; day 7, 8 h after last dose", "result": "0.10 ± 0.02", "unit": "µmol/L"},
      {"measurement": "cellular motility (two-dimensional scratch assay)", "setting": "HT-1080 cells [6]", "result": "neither U2OS nor HT-1080 cells showed inhibition of motility"},
      {"measurement": "Notch signaling (Hes5 promoter luciferase)", "setting": "[7]", "result": "did not detect any transcriptional effects"},
      {"measurement": "Wnt transcriptional activity (TCF-Luciferase/TA-Renilla)", "setting": "[8]", "result": "Concentration dependent inhibition of Wnt transcriptional activity"},
      {"measurement": "phosphorylated β-catenin associated with Axin1 (co-localization)", "setting": "[9]", "result": "increase in the amount of phosphorylated β-catenin associated with Axin1"}
    ]}
  ]
}
